Data published in ChEMBL document CHEMBL4622979, “Non-rigid Diarylmethyl Analogs of Baloxavir as Cap-Dependent Endonuclease Inhibitors of Influenza Viruses” (J Med Chem, 2020).

Tests used:
[1] = Oral bioavailability in CD1 mouse assessed as baloxavir acid level at 15 mg/kg administered as single dose by LC-MS/MS analysis; format: ADME, organism-based; conditions: in vivo
[2] = Tmax in CD1 mouse liver assessed as baloxavir acid level at 15 mg/kg, po administered as single dose measured up to 24 hrs by LC-MS/MS analysis; format: ADME, organism-based; conditions: in vivo
[3] = Cmax in CD1 mouse kidney assessed as baloxavir acid level at 15 mg/kg, po administered as single dose measured up to 24 hrs by LC-MS/MS analysis; format: ADME, organism-based; design: dose 15 mg/kg, route oral; conditions: in vivo
[4] = Cmax in CD1 mouse trachea assessed as baloxavir acid level at 15 mg/kg, po administered as single dose measured after 4 hrs by LC-MS/MS analysis; format: ADME, organism-based; design: dose 15 mg/kg, route oral; conditions: in vivo
[5] = AUClast in CD1 mouse blood assessed as baloxavir acid level at 15 mg/kg, po administered as single dose measured up to 24 hrs by LC-MS/MS analysis; format: ADME, organism-based; conditions: in vivo
[6] = Elimination rate constant in CD1 mouse brain assessed as baloxavir acid level at 15 mg/kg, po administered as single dose measured up to 24 hrs by LC-MS/MS analysis; format: ADME, organism-based; conditions: in vivo
[7] = AUCinfinity in CD1 mouse brain assessed as baloxavir acid level at 15 mg/kg, po administered as single dose measured up to 24 hrs by LC-MS/MS analysis; format: ADME, organism-based; design: dose 15 mg/kg, time infinity, route oral; conditions: in vivo
[8] = AUClast in CD1 mouse spleen assessed as baloxavir acid level at 15 mg/kg, po administered as single dose measured up to 24 hrs by LC-MS/MS analysis; format: ADME, organism-based; conditions: in vivo
[9] = MRTlast in CD1 mouse plasma assessed as (12aR)-12-(Diphenylmethyl)-7-hydroxy-3,4,12,12a-tetrahydro-1H-[1,4]oxazino[3,4-c]pyrido[2,1-f ][1,2,4]triazine-6,8-dione level at 15 mg/kg, po administered as single dose measured up to 24 hrs by LC-MS/MS analysis; format: ADME, organism-based; conditions: in vivo
[10] = Acute toxicity in CD1 mouse assessed as effect on lung at 2000 mg/kg, po measured after 2 weeks by macroscopic analysis; format: organism-based; conditions: in vivo, 336 h
[11] = Stability in mouse plasma assessed as parent compound remaining at 1 uM measured after 4 hrs by LC-MS/MS analysis; format: ADME, cell-free; conditions: read-out: Stability
[12] = Cytotoxicity against human MRC5 cells assessed as reduction in cell viability by ATP bioluminescence assay; format: cell-based
[13] = Cmax in CD1 mouse plasma assessed as (12aR)-12-(Diphenylmethyl)-7-hydroxy-3,4,12,12a-tetrahydro-1H-[1,4]oxazino[3,4-c]pyrido[2,1-f ][1,2,4]triazine-6,8-dione level at 15 mg/kg, po administered as single dose by LC-MS/MS analysis; format: ADME, organism-based; design: dose 15 mg/kg, route oral; conditions: in vivo
[14] = Cmax in CD1 mouse muscle assessed as (12aR)-12-(Diphenylmethyl)-7-hydroxy-3,4,12,12a-tetrahydro-1H-[1,4]oxazino[3,4-c]pyrido[2,1-f ][1,2,4]triazine-6,8-dione level at 15 mg/kg, po administered as single dose measured up to 24 hrs by LC-MS/MS analysis; format: ADME, organism-based, Muscle tissue; design: dose 15 mg/kg, route oral; conditions: in vivo
[15] = Cmax in CD1 mouse lung assessed as (12aR)-12-(Diphenylmethyl)-7-hydroxy-3,4,12,12a-tetrahydro-1H-[1,4]oxazino[3,4-c]pyrido[2,1-f ][1,2,4]triazine-6,8-dione level at 15 mg/kg, po administered as single dose measured up to 24 hrs by LC-MS/MS analysis; format: ADME, organism-based; design: dose 15 mg/kg, route oral; conditions: in vivo
[16] = Ratio of AUClast in CD1 mouse brain to plasma assessed as (12aR)-12-(Diphenylmethyl)-7-hydroxy-3,4,12,12a-tetrahydro-1H-[1,4]oxazino[3,4-c]pyrido[2,1-f ][1,2,4]triazine-6,8-dione level at 15 mg/kg, po administered as single dose measured up to 24 hrs by LC-MS/MS analysis; format: ADME, organism-based
[17] = Cmax in CD1 mouse lung assessed as (12aR)-12-(Diphenylmethyl)-7-hydroxy-3,4,12,12a-tetrahydro-1H-[1,4]oxazino[3,4-c]pyrido[2,1-f ][1,2,4]triazine-6,8-dione level at 15 mg/kg, po administered as single dose by LC-MS/MS analysis; format: ADME, organism-based; design: dose 15 mg/kg, route oral; conditions: in vivo
[18] = Half life in CD1 mouse plasma assessed as (12aR)-12-(Diphenylmethyl)-7-hydroxy-3,4,12,12a-tetrahydro-1H-[1,4]oxazino[3,4-c]pyrido[2,1-f ][1,2,4]triazine-6,8-dione level at 15 mg/kg, po administered as single dose measured up to 24 hrs by LC-MS/MS analysis; format: ADME, organism-based; conditions: in vivo
[19] = AUCinfinity in CD1 mouse plasma assessed as (12aR)-12-(Diphenylmethyl)-7-hydroxy-3,4,12,12a-tetrahydro-1H-[1,4]oxazino[3,4-c]pyrido[2,1-f ][1,2,4]triazine-6,8-dione level at 15 mg/kg, po administered as single dose measured up to 24 hrs by LC-MS/MS analysis; format: ADME, organism-based; design: dose 15 mg/kg, time infinity, route oral; conditions: in vivo
[20] = Ratio of AUClast in CD1 mouse trachea to plasma assessed as (12aR)-12-(Diphenylmethyl)-7-hydroxy-3,4,12,12a-tetrahydro-1H-[1,4]oxazino[3,4-c]pyrido[2,1-f ][1,2,4]triazine-6,8-dione level at 15 mg/kg, po administered as single dose measured up to 24 hrs by LC-MS/MS analysis; format: ADME, organism-based; conditions: in vivo
[21] = Acute toxicity in CD1 mouse assessed as effect on food consumption at 2000 mg/kg, po measured for 2 weeks; format: organism-based; conditions: in vivo, 336 h

COC(=O)OCOc1c2n(ccc1=O)N([C@@H]1c3ccccc3SCc3c1ccc(F)c3F)[C@@H]1COCCN1C2=O [BALOXAVIR MARBOXIL]
F [1]: 26.9%
Tmax [2]: 2 h
Cmax [3]: 2998 ng/g
Cmax [4]: 277 ng/g
AUClast [5]: 1381 ng·h/g
Kel [6]: 0.06 h⁻¹
AUC [7]: 411 ng·h/g
AUClast [8]: 3611 ng·h/g

COC(=O)OCOc1c2n(ccc1=O)N(C(c1ccccc1)c1ccccc1)[C@@H]1COCCN1C2=O
MRTlast [9]: 1.67 h
Activity [10]: Non-Toxic
remaining at 4 h, 1 µM [11]: 0%
CC50 [12]: > 100 µM
Cmax [13]: 875 ng/mL
Cmax [14]: 2005 ng/g
Cmax [15]: 2847 ng/g
Ratio AUC [16]: 0.19
Cmax [17]: 1882 ng/g
t1/2 [18]: 1.58 h
AUC [19]: 3385 ng·h/mL
Ratio AUC [20]: 3.22
Activity [21]: Non-Toxic
